Results as given in ChEMBL document CHEMBL1159356, “Cytotoxic styrylpyrones from Goniothalamus amuyon” (J Nat Prod, 2003).
Values after ≈ are worked out from the molar mass of the structure shown. Numbered stars: 1 amine (or outer) side, 2 acyl side, 3 side chain; on linkers, the order of the positions; unused ones are H or OH. Bridge positions count the residues as written; N and C are the ends. Square brackets hold non-standard residues; d marks the D form. Peptide text beside a SMILES is read from it. I, II: the chains in the order shown. Actinocin(1to9) = Cc1c2oc3c(C)ccc(C(=O)[*:2])c3nc-2c(C(=O)[*:1])c(N)c1=O; NMeV = CN[C@H](C(=O)O)C(C)C; Sar = CNCC(=O)O

Tests used:
NUGC = experiment: Cytotoxicity against human NUGC cells; format: functional, cell-based
[1] = Cytotoxicity against human HONE1 cells; format: functional, cell-based

## CC(=O)O[C@H]([C@H](O)c1ccccc1)[C@H]1CC=CC(=O)O1
NUGC
  IC50: 4.12 µg/mL (≈ 14.9 µM)
[1]
  IC50: 5.69 µg/mL (≈ 20.6 µM)

## CC(=O)O[C@H](c1ccccc1)[C@H](O)[C@H]1CC=CC(=O)O1
NUGC
  IC50: 5.02 µg/mL (≈ 18.2 µM)
[1]
  IC50: 6.09 µg/mL (≈ 22 µM)

## O=C1C=CC[C@H]([C@@H](O)[C@H](Cl)c2ccccc2)O1 [6R,7R,8R-8-CHLOROGONIODIOL]
NUGC
  IC50: 31 µg/mL (≈ 123 µM)
[1]
  IC50: 4.87 µg/mL (≈ 19.3 µM)

## CO[C@H](c1ccccc1)[C@H](O)[C@H]1CC=CC(=O)O1 [6R,7R,8R-8-METHOXYGONIODIOL]
NUGC
  IC50: 168 µg/mL (≈ 675 µM)
[1]
  IC50: 240 µg/mL (≈ 965 µM)

## Cc1c2oc3c(C)ccc(C(=O)N[C@@H]4C(=O)N[C@H](C(C)C)C(=O)N5CCC[C@H]5C(=O)N(C)CC(=O)N(C)[C@@H](C(C)C)C(=O)O[C@@H]4C)c3nc-2c(C(=O)N[C@@H]2C(=O)N[C@H](C(C)C)C(=O)N3CCC[C@H]3C(=O)N(C)CC(=O)N(C)[C@@H](C(C)C)C(=O)O[C@@H]2C)c(N)c1=O [DACTINOMYCIN] (I: T[dV]P[Sar][NMeV] / II: T[dV]P[Sar][NMeV]; ester I:1-I:C, II:1-II:C; linker I:N-II:N via Actinocin(1to9))
NUGC
  IC50: 6.61 µg/mL (≈ 5.27 µM)
[1]
  IC50: 4.53 µg/mL (≈ 3.61 µM)

## O=C1C=CC[C@H]([C@@H]2O[C@H]2c2ccccc2)O1 [GONIOTHALAMIN EPOXIDE]
NUGC
  IC50: 32.1 µg/mL (≈ 148 µM)
[1]
  IC50: 36.3 µg/mL (≈ 168 µM)
